Molecules are shown by their SMILES.

The target in data set [1] is T1, purified human RAD51 protein (Homo sapiens, UniProt Q06609).
T1 sequence (Q06609 1-339): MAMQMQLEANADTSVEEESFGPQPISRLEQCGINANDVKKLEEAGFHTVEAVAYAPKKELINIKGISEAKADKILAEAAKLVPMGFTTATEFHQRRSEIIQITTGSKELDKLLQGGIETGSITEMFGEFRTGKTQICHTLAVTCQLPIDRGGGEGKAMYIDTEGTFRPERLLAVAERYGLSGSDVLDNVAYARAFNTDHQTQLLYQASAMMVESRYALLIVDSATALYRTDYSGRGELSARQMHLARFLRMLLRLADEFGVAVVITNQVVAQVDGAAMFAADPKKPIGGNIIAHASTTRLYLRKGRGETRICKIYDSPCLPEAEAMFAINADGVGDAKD
Briefly: Measurement of RAD51 binding to DNA by fluorescence polarization. Particulars: 75 nM RAD51, various concentrations of RS-1, 100 nM DNA substrate. (Polarisation of emitted light reports the rotation of a fluorescent probe.)
Description: Various concentrations of RS-1 were incubated with purified hRAD51 protein and a fluorescently tagged DNA substrate, consisting of either a ssDNA oligonucleotide (DHD162-CD-CF) or a dsDNA double hairpin (DHD162). Binding of RAD51 to DNA was measured as a function of fluorescence polarization of the tag, as described in the methods section.
Experiments were performed as previously described with some modifications (Budke, et al., 2012). Briefly, 75 nM purified human RAD51 protein was incubated with various concentrations of RS-1 in FP reaction buffer at 37° C. for 40 minutes. FP reaction buffer consisted of 20 mM Hepes pH 7.5, 10 mM MgCl2, 0.25 μM BSA, 2% glycerol, 30 mM NaCl, 4% DMSO, 0.1 mM tris(2-carboxyethyl)phosphine (TCEP), and 2 mM ATP. Fluorescently tagged DNA substrate was then added to a final concentration of 100 nM (nucleotide concentration for ssDNA or base pair concentration for dsDNA) and incubated at 37° C. for another 40 minutes. DNA substrates consisted of either an Alexa Fluor 488-labeled oligo-dT 45-mer, a fluorescein-labeled ssDNA oligonucleotide (DHD162-CD-CF), or a fluorescein-labeled dsDNA double hairpin (DHD162) which were previously described (Budke, et al., 2013). Fluorescence polarization measurements were obtained as previously described (Budke, et al., 2012). […]

The test system of data set [2] is PC3 prostate cancer cells. Briefly: Immunofluorescence microscopy to detect RAD51 and RPA foci in PC3 cells. In kind it is cell-based, human. Here is the method:
(§1) FIGS. 6A-6B. […] FIG. 6A: Cells were grown on cover slips, incubated for 6 hours in media containing 60 μM RS-1. In the 8 Gy radiation control condition, cells were irradiated 6 hours before harvest. Cells were subsequently indirectly immunostained. […] FIG. 6B: Fifty randomly selected nuclei per treatment group were examined and discrete foci were quantified.
(§2) Some cancer cells that strongly overexpress RAD51 are known to develop spontaneous RAD51 nuclear complexes (Raderschall, et al., 2002). […] PC3 prostate cancer cells and normal primary human fibroblasts (MRC-5) were treated with RS-1 and examined by immunofluorescence microscopy. To determine whether RAD51-staining structures represented sites of DNA repair vs. non-damage-associated sites, nuclei were counterstained for RPA, which forms punctuate sub-nuclear foci specifically in response to DNA damage at sites that colocalize with damage-induced RAD51 foci (Golub, et al., 1998).
(§3) Cells were grown on coverslips and treated with RS-1 or radiation as indicated. They were subsequently fixed with 3% paraformaldahyde/3.4% sucrose, and permeabilized with a standard buffer (20 mM HEPES pH 7.4, 0.5% TritonX-100, 50 mM NaCl, 3 mM MgCl2, 300 mM sucrose). […] Images were recorded at a single representative focal plane using a CCD camera. For each experimental condition, 50 randomly selected nuclei were quantified using NIH Image software.

The test system of data set [3] is normal primary human fibroblasts (MRC-5). The data set can be described thus: Immunofluorescence microscopy to detect RAD51 and RPA foci in MRC-5 cells. In kind it is cell-based. The protocol: as §1, §2, §3
In a further data set the test system is PC3 tumors. Briefly: PC3 xenograft tumor model in athymic nude mice. The protocol:
FIG. 7. […] PC3 tumors were induced in the hind limbs of athymic nude mice. Mice were then randomized into two treatment groups. Starting on day 0, mice then received 5 daily intra-peritoneal injections with either RS-1 (110 mg/kg) or vehicle alone control. Median tumor volume is plotted, normalized to the starting tumor volume on day 0.
An in-vivo tumor model was used to further test the concept of RAD51 stimulation as a cancer treatment. Subcutaneous xenograft PC3 tumors were induced in the hind limbs of athymic nude mice, and the mice were subsequently treated with daily intra-peritoneal injections of RS-1 for five consecutive days. The daily dose administered to the mice was designed to yield an idealized concentration of 300 μM within the aqueous compartment of a mouse, based on an assumption of homogenous distribution across a 21 gm animal that is composed of 70% water.
Xenograft tumors were induced in the hind limbs of athymic nude mice by subcutaneous injection of 1×10^6 PC3 cells, and tumors were allowed to grow to an average volume of about 50 mm^3. Mice were then were randomized into treatment groups, each consisting of 7 mice. […] Tumor measurements were taken 3 times per week with a caliper and expressed as tumor volume, which was approximated from the product of width×length×height×0.5.

The test system of the next data set is HT1080 cells. The data set can be described thus: Cell survival assay in HT1080 cells with doxycycline-repressible RAD51 transgene. To be noted: HT1080, RAD51 overexpression by doxycycline removal; 24 hours RS-1, 6 days drug-free. In kind it is cell-based, human.
A further data set has as its system PC3 cells. The data set can be described thus: Cell survival assay in PC3 cells (with or without siRNA knockdown). Format: cell-based, human.
For data set [4], the target named is T2, RAD51 (Homo sapiens, UniProt Q06609).
T2 sequence (Q06609 1-339): T1 sequence (Q06609 1-339)
To be noted: cited from earlier work.

Data set [5] deals with T2, RAD51. Particulars: cited from earlier work. The source holds these as a separate data set.
Setting [6] is: 110 mg/kg intra-peritoneal, 5 daily injections.

Description for HT1080 cells: HT1080 cells carrying a doxycycline-repressible RAD51 transgene were pre-treated with varying levels of doxycycline for 24 hours. […] In lower panel, cells were subsequently incubated for 24 hours in media containing varying concentrations of RS-1. Cells were then allowed to grow in drug-free media for an additional 6 days, and indicated doxycycline concentrations were maintained throughout the entire experiment. Average survival for each condition is normalized to the 0 μM RS-1 control of that condition.
Cells were plated into 96-well tissue culture plates at a density of 300 cells per well in the presence or absence of RS-1 for 24 hours at 37° C., 5% CO2. RS-1 was then removed, and cultures were allowed to grow for approximately one week to a 50-70% confluence. Average survival from six replicates was measured using CellGlo reagent (Promega), and error bars represent the standard error.
To confirm that RS-1 toxicity is directly related to RAD51 and translocases protein levels, these proteins were experimentally manipulated in cells. First, RAD51 was overexpressed in human fibrosarcoma HT1080 cells carrying a doxycycline-repressible RAD51 transgene.

As to `O=C(Nc1ccc(Br)cc1)c1ccc(Br)c(S(=O)(=O)NCc2ccccc2)c1` [RS-1, 3-Benzylsulfamoyl-4-bromo-N-(4-bromo-phenyl)-benzamide], the “binding of RAD51 to ssDNA and dsDNA” value in data set [1] is “stimulates the binding of RAD51 to both ssDNA and dsDNA”. The “nuclei with >10 RAD51 foci/nucleus” value in data set [2] (PC3, 60 μM RS-1, 6 hours, no DNA damage) is 43%; in data set [3] (MRC-5, 60 μM RS-1, 6 hours) it was “no MRCS nuclei exhibited >10 RAD51 foci/nucleus”. Moreover, the “cells with >10 RPA foci/nucleus” value in data set [2] (PC3, after RS-1 treatment) is on record as “Neither cell type exhibited >10 RPA foci/nucleus in any cells”; in data set [3] (MRC-5, after RS-1 treatment), “Neither cell type exhibited >10 RPA foci/nucleus in any cells”. In addition, in the data set with PC3 tumors (setting [6]), the “anti-tumor response relative to vehicle-alone control” value is reported as “significant anti-tumor responses”. Moreover, the toxic deaths entry with PC3 tumors (setting [6]) was “no toxic deaths observed”. In addition, the “delay in tumor regrowth relative to vehicle-alone control” value with PC3 tumors (110 mg/kg intra-peritoneal, 5 daily injections, remaining tumors) was over 2 week. In addition, in the data set on PC3 tumors (110 mg/kg intra-peritoneal, 5 daily injections, two month observation, 3 of 7), the “tumors that completely disappeared after treatment and never regrew” value was 43%. For the same molecule, the transient weight loss entry with PC3 tumors (during the treatment week, regained post-treatment) is listed as “about 10%”. For the same molecule, the “sensitivity to RS-1 of cells with the highest RAD51 expression levels” value in the data set on HT1080 cells is listed as “significantly more sensitive to RS-1”. The “effect of RAD51 depletion on RS-1 induced toxicity” value with PC3 cells (PC3, RAD51 siRNA 48 hours, then 24 hours RS-1) is “significant protection from RS-1 induced toxicity”. Besides, in the data set on PC3 cells (PC3, relative to panel of cell lines), the LD90 result is “low LD90”. For the same molecule, the “effect of RAD54B or RAD54L knockdown on RS-1 toxicity” value in the data set on PC3 cells (PC3, siRNA 48 hours, then 24 hours RS-1) is given as “significantly sensitized PC3 cells to RS-1 toxicity”. Also, at RAD51 [4] (buffers containing high salt concentration), the “protection of RAD51 filaments from high salt” value is on record as “protects these filaments from buffers containing high salt concentration”. The “RAD51 filament formation (further study)” value at RAD51 [4] is recorded as “enhances RAD51 filament formation”. Besides, the “DNA strand invasion activity of RAD51” value on RAD51 [5] is on record as “capable of stimulating DNA strand invasion activity of RAD51”.
